# Source: doi:10.1101/2020.01.20.912972v1 (biorxiv, 2020)
# Assays:
# [1] = target: TrpR (tryptophan repressor; TrpR-Wt) (Escherichia coli, UniProt P0A881); experiment: isothermal titration calorimetry; type: binding
# [2] = target: TrpR (tryptophan repressor; TrpR-Wt) (Escherichia coli, UniProt P0A881, S88Y); experiment: isothermal titration calorimetry; type: binding
Structure (SMILES),Kd [1],Kd [2]
"Cc1ccc2[nH]cc(CC(N)C(=O)O)c2c1 (racemic) [5-Met-TRP, 5-Methyl-DL-Tryptophan]",62.2 ± 15.6 µM,
"O=C(O)Cc1c[nH]c2ccccc12 [IAA, Indole-3-acetic acid]",162 ± 14 µM,29.3 ± 2.08 µM
"N[C@@H](Cc1c[nH]c2ccccc12)C(=O)O [TRP, Tryptophan]",40.3 ± 2.35 µM,

# Further molecules by falling Kd [1], results first:
Kd [1],Kd [2],Structure (SMILES)
33.4 ± 1.16 µM,7.49 ± 0.91 µM,"O=C(O)CCc1c[nH]c2ccccc12 [IPA, Indole-3-propionic acid]"
32.7 ± 0.88 µM,10.4 ± 1.25 µM,"O=C(O)CCCc1c[nH]c2ccccc12 [IBA, Indole-3-butyric acid]"
